From paper PMC5863515, “Re-evaluation of Adrenocorticotropic Hormone and Melanocyte Stimulating Hormone Activation of GPR139 in Vitro” (Frontiers in Pharmacology, 2018) come the findings set out here.

Assay [1] has as its target MC4R + Gα16 (Homo sapiens, UniProt P32245). The experiment in a line: Calcium mobilization, HEK-293 transiently expressing MC4R + Gα16. The assay is classed as cell-based. On the set-up: expressed in transfected cells; host or cells: HEK-293, pCIneo, transient (10 μg MCR:5 μg Gα16). The method, then:
(§1) Human MC3R (NM_019888), MC4R (NM_005912), and MC5R (NM_005913) were transiently expressed in HEK-293 cells with and without human GPR139 (KR081941) or the chimeric G-protein Gα16. All genes were cloned into pCIneo (Promega, Madison, WI, United States, #E1841). HEK-293 cells were cultured in DMEM/F12 (Gibco, Grand Island, NY, United States, #11039-021), 10% FBS (Hyclone, Logan, UT, United States, # SH300700.03), 50 units/ml penicillin and 50 μg/ml streptomycin (Mediatech, Manassas, VA, United States, #30-001-CI). Cells were seeded at 4 × 10^6 cells in 10 cm dishes and allowed to grow overnight at 37°C, 5% CO2. On the day of transfection, culture media was replaced with F12-K (Mediatech, Manassas, VA, United States, #10-025-CV), 10% FBS, 20 mM HEPES (Hyclone, Logan, UT, United States, #SH30237.01) and transfected with 15 μg DNA (10 μg MCR:5 μg pCIneo, 10 μg MCR:5 μg Gα16 or 7.5 μg MCR:7.5 μg GPR139) using FuGene HD (Promega, Madison, WI, United States, #E2311) according to manufacturer’s instructions. MC3R, MC4R, and MC5R were also transiently expressed in the following GPR139 stably expressing cell lines using the FuGENE HD method: HEK-293 GPR139 clone#33, CHO-TREx GPR139 clone#18, and SK-N-MC/CRE TREx GPR139 clone#35. Stable cell lines were established according to method previously described ([Liu et al., 2015]).
(§2) Intracellular calcium mobilization was measured with the BD calcium kit (BD Bioscience, San Jose, CA, United States). The recombinant cell lines expressing MC3R, MC4R, and MC5R with and without GPR139 or Gα16 were seeded in culture media at a density of 50,000 cells/well into 96-well black/clear-bottom poly-D-lysine treated tissue culture plates. Cells were incubated overnight at 37°C and 5% CO2. Next day, culture media was removed and cells were washed with HBSS prior to dye-loading for 1 h at 37°C and 5% CO2. […] EC50s were calculated by fitting a three-parameter logistic curve using least-squares non-linear regression analysis as implemented in Graphpad Prism 7.0.
For orientation: A change in cytosolic calcium serves as a functional read-out for many receptors and channels.

The target in assay [2] is GPR139 + MC4R (Homo sapiens, UniProt Q6DWJ6). The experiment in a line: Calcium mobilization, stable GPR139-HEK-293 cell line transiently expressing MC4R. The assay is classed as cell-based. The protocol: as §1, §2
For assay [3], the target named is MC4R + GPR139 (Homo sapiens, UniProt Q6DWJ6). The experiment in a line: Calcium mobilization, HEK-293 transiently expressing MC4R + GPR139. The assay is classed as cell-based. The protocol:
as §1
(§3) Intracellular calcium mobilization was measured with the BD calcium kit (BD Bioscience, San Jose, CA, United States). The recombinant cell lines expressing MC3R, MC4R, and MC5R with and without GPR139 or Gα16 were seeded in culture media at a density of 50,000 cells/well into 96-well black/clear-bottom poly-D-lysine treated tissue culture plates. Cells were incubated overnight at 37°C and 5% CO2. Next day, culture media was removed and cells were washed with HBSS prior to dye-loading for 1 h at 37°C and 5% CO2. Agonist stimulation and intracellular calcium measurements were done on the FLIPR Tetra (Molecular Devices, Sunnyvale, CA, United States). For receptor inhibition analysis, antagonists (1 μM HS-024 or 10 μM JNJ-3792165) were added off-line 15 min prior to agonist addition on the Tetra. For G-protein inhibitor experiments, cells were treated with 1 μM YM-254890 for 5 min prior to agonist additions on the Tetra. […] Responses in Figure 6 were normalized to its respective agonist response without antagonist. EC50s were calculated by fitting a three-parameter logistic curve using least-squares non-linear regression analysis as implemented in Graphpad Prism 7.0.

In assay [4] the target is T1, MC4R (Homo sapiens, UniProt P32245).
T1 construct: expressed in transfected cells; host or cells: HEK-293, pCIneo, transient (FuGene HD)
The experiment in a line: Calcium mobilization, HEK-293 transiently expressing MC4R. The assay is classed as cell-based. The protocol:
as §1, §3

For assay [5], the target named is T2, GPR139 (Homo sapiens, UniProt Q6DWJ6).
T2 sequence (Q6DWJ6 1-353): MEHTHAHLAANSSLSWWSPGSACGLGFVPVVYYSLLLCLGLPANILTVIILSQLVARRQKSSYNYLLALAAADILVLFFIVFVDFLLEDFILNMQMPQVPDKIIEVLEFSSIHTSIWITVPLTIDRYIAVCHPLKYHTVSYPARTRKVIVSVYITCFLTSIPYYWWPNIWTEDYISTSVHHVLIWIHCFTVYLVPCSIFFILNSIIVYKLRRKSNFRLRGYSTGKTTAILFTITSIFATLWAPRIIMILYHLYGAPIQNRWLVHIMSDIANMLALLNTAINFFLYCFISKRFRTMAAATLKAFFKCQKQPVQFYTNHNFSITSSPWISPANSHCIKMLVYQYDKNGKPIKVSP
The experiment in a line: cAMP assay. Format: cell-based. The conditions noted are these: unpublished data. Background: cAMP levels reflect the balance of adenylyl cyclase and phosphodiesterase activity.

The target in assay [6] is T3, MC3R + Gα16 (Homo sapiens, UniProt P41968).
T3 construct: expressed in transfected cells; host or cells: HEK-293, pCIneo, transient (10 μg MCR:5 μg Gα16)
The experiment in a line: Calcium mobilization, HEK-293 transiently expressing MC3R + Gα16. Format: cell-based. The method, then: as §1, §2

For assay [7], the target named is T2, GPR139. The experiment in a line: [3H]JNJ-63533054 radioligand binding assay, membranes of CHO-TREx cells stably expressing human GPR139. On the set-up: expressed in transfected cells; host or cells: CHO-TREx GPR139 clone#18. The method, then:
Reaction was terminated by filtration through GF/C filterplates pre-treated with PEI (polyethyleneimine) followed by washes with ice-cold TE buffer. Filterplates were dried in a 60°C oven followed by addition of Microscint-0. Bound radioactivity was read on a Topcount scintillation counter. […] Half-maximal inhibitory concentrations (IC50s) of test compounds were calculated by fitting a three-parameter logistic curve using least-squares non-linear regression analysis as implemented in Graphpad Prism 7.0. The Top plateau was fixed at 100 and the Bottom was fixed at 0.

For assay [8], the target named is T4, MC5R (Homo sapiens, UniProt P33032).
T4 construct: expressed in transfected cells; host or cells: HEK-293, pCIneo, transient (FuGene HD)
The experiment in a line: Calcium mobilization, HEK-293 transiently expressing MC5R. The assay is classed as cell-based. The conditions noted are these: HEK-293 transient; read-out: Agonist potency (pEC50), MC5R (converted). The protocol:
as §1, §2

In assay [9] the target is T5, GPR139 + MC3R (Homo sapiens, UniProt Q6DWJ6).
T5 construct: expressed in transfected cells; host or cells: HEK-293 GPR139 clone#33, MC3R transient (FuGENE HD)
T5 sequence (Q6DWJ6 1-353): T2 sequence (Q6DWJ6 1-353)
The experiment in a line: Calcium mobilization, stable GPR139-HEK-293 cell line transiently expressing MC3R. Format: cell-based. The protocol:
as §1, §2

For assay [10], the target named is T2, GPR139. The experiment in a line: Calcium mobilization, SK-N-MC/CRE cells stably expressing human GPR139. Format: cell-based. Also noted: expressed in transfected cells; host or cells: CHO-TREx GPR139 clone#18. The method, then: as §1, §3
In assay [11] the target is T6, MC5R + Gα16 (Homo sapiens, UniProt P33032).
T6 construct: expressed in transfected cells; host or cells: HEK-293, pCIneo, transient (10 μg MCR:5 μg Gα16)
The experiment in a line: Calcium mobilization, HEK-293 transiently expressing MC5R + Gα16. Format: cell-based. To be noted: HEK-293 transient; read-out: Agonist potency (pEC50), MC5R + Gα16 (converted). The method, then:
as §1, §2

The mark [12] stands for this setting: HEK-293 transient, read-out: Agonist potency (pEC50), MC4R + Gα16 (converted).
Where [13] appears, read: HEK-293 transient, read-out: Agonist potency (pEC50), MC4R (converted).
Setting [14] is: HEK-293 transient, read-out: Agonist potency (pEC50), MC3R + Gα16 (converted).
The mark [15] stands for this setting: 10 nM radioligand, CHO-TREx GPR139 membranes, read-out: pKi, displacement of [3H]JNJ-63533054 (converted).
[16] abbreviates: read-out: Agonist potency (pEC50), stable GPR139-HEK-293 + MC3R (converted).
Setting [17] is: SK-N-MC/CRE stable GPR139, read-out: pEC50, calcium mobilization (converted).

Structures are written as SMILES. Where two headings read alike, the source gives them in different places. Where only a bound is given, the exact number is not on record here.

T6 sequence (P33032 whole entry): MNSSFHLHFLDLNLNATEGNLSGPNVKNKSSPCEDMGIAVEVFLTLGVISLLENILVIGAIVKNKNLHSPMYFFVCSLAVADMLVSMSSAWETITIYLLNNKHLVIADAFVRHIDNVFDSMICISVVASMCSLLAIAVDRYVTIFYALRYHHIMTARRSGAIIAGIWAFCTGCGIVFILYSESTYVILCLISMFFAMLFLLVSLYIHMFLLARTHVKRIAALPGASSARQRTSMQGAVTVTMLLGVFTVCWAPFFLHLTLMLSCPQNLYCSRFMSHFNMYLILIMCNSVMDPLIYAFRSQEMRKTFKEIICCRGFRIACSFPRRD
T4 sequence (P33032 whole entry): as above
T1 sequence (P32245 whole entry): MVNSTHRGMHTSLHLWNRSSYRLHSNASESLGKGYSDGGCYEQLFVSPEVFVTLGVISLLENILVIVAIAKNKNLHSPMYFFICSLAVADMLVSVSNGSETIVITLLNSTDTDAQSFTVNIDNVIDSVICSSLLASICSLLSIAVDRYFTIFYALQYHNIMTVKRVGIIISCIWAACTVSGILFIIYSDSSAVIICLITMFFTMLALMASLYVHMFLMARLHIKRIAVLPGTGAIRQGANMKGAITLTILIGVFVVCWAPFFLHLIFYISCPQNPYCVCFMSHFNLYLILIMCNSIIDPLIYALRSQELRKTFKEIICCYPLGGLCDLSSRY
MC4R + Gα16, sequence (P32245 whole entry): as above
T3 sequence (P41968 whole entry): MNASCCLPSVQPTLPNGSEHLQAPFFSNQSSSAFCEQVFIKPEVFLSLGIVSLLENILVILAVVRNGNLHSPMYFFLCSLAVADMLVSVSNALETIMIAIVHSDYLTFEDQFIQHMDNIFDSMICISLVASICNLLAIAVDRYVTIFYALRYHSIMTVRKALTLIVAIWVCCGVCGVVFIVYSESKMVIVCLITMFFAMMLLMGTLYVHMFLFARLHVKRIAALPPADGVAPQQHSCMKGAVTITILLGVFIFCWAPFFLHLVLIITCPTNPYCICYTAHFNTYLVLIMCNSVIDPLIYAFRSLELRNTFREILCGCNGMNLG
GPR139 + MC4R, sequence (P32245 whole entry partner, one chain of several): as the sequence (P32245 whole entry) above
MC4R + GPR139, sequence (P32245 whole entry partner, one chain of several): as the sequence (P32245 whole entry) above

Take `C[C@H](NC(=O)CNC(=O)c1cccc(Cl)c1)c1ccccc1` [JNJ-63533054, 3-chloro-N-[2-oxo-2-[[(1S)-1-phenylethyl]amino]ethyl]benzamide]: the EC50 was over 10 µM in [1] (setting [12]); 0.0174 µM in assay [2]; 0.0355 µM in [3]; over 10 µM in assay [4] (setting [13]); over 10 µM in assay [6] (setting [14]); over 10 µM in assay [8]. For the same compound, the EC50 in assay [9] (setting [16]) is 0.0204 µM; in assay [10] (setting [17]) it was 0.0263 µM; in [11], over 10 µM. For the same compound, the “Agonist potency (pEC50), MC4R + GPR139, No antagonist” value (shortened to “Agonist potency … No antagonist”) in assay [3] stood at 7.45 ± 0.09. Also, the “Response in a cAMP assay” value in assay [5] is “unable to detect a response”. Besides, the Ki in assay [7] (setting [15]) was 0.0347 µM.
For `N[C@@H](Cc1c[nH]c2ccccc12)C(=O)O` [L-Trp, L-tryptophan], the EC50 in assay [1] (setting [12]) was over 3160 µM; in [2] it was 138 µM; in [3], 93.3 µM; in assay [4] (setting [13]), over 3160 µM; in [6] (setting [14]), over 3160 µM; in [8], over 3160 µM. The EC50 is 126 µM in assay [9] (setting [16]), 398 µM in assay [10] (setting [17]) and over 3160 µM in [11]. Moreover, the “Agonist potency … No antagonist” value in assay [3] is 4.03 ± 0.05. For the same compound, the “Response in a cAMP assay” value in [5] is reported as “unable to detect a response”. In addition, the Ki in [7] (setting [15]) was 646 µM.
Turning to `COc1cc(OC)cc(C(=O)NNC(=O)Nc2cccc3ccccc23)c1` [TC-O9311], the EC50 in [1] is over 10 µM; in assay [2], 0.0617 µM; in assay [3], 0.0661 µM; in assay [4], over 10 µM; in assay [6], over 10 µM; in assay [8], over 10 µM. For the same compound, the EC50 in assay [9] was 0.0501 µM; in [10], 0.049 µM; in [11], over 10 µM. Moreover, the “Agonist potency … No antagonist” value in assay [3] is 7.18 ± 0.08. Besides, in [5], the “Response in a cAMP assay” value is “unable to detect a response”. This compound gave a Ki in [7] of 0.0891 µM.
